One experiment deals with HEK293/CRE-Luc cells. The experiment in a line: Luciferase reporter assay, HEK293/CRE-Luc cells without GLP1R (Example 17). Type of experiment: cell-based, human. To be noted: HEK293/CRE-Luc cells without hGLP1R, payloads and linker-payloads; for EC50: read-out: EC50. An outline of the steps:
(§1)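 HEK293 cells carrying a CRE-driven firefly luciferase reporter were exposed to 3-fold serial dilutions of payloads or linker-payloads (12 points, 0.2% DMSO final) for 4–6 h, then luminescence was read. EC50 came from a four-parameter logistic fit; S/N is top RLU over untreated wells, and relative potency and S/N are referenced to M2361.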
A general note: A reporter such as luciferase makes a cellular process visible.

For experiment [1], the target named is T1, human GLP1R (Homo sapiens, UniProt P43220). Kind of experiment: Human GLP1R cAMP accumulation assay. To be noted: HEK293/hGLP1R cells; Table 4; read-out: cAMP EC50. Set-up: HEK293 cells over-expressing full length human GLP-1R were utilized; expressed in transfected cells; host or cells: HEK293 (HEK293/hGLP1R). Type of experiment: cell-based. As for the experimental part:
8.1 Human GLP1R cAMP Accumulation Assay (Cyclic AMP Determination)
The functional activity of the test compounds for agonizing GLP1R were evaluated using a cell-based assay. For the assay, HEK293 cells over-expressing full length human GLP-1R were utilized and the downstream cAMP accumulation was assessed as a measure of human GLP-1R stimulation. […] Diluted compounds were transferred to OptiPlates (100 nL/well) using an Echo liquid handler. HEK293/hGLP1R cells were thawed in 37° C. water-bath, washed 2 times with HBSS and re-suspended in assay buffer (HBSS+5 mM HEPES+500 μM IBMX+0.1% BSA). […] After centrifugation, the assay plate was incubated at 23° C. for 30 min. The reaction was terminated by adding 10 μL of lysis buffer containing D2-cAMP and a cAMP-antibody from the cyclic AMP immunoassay kit (Cisbio, Cat #62AM4PEJ). […] The levels of cAMP per well were calculated using a standard curve generated by GraphPad Prism. Percent activity was calculated according to the formula (% Activity=100%*(cAMP level-LC)/(HC-LC)). EC50 values were fitted from a four-parameter logistic equation over a 10-point response curve (GraphPad Prism).
(In general: cAMP levels reflect the balance of adenylyl cyclase and phosphodiesterase activity.)

The target of experiment [2] is T1, human GLP1R. The experiment in a line: Luciferase reporter assay, HEK293/CRE-Luc/hGLP1R (Example 17). The experiment is classed as cell-based. On the set-up: engineered to express full-length human GLP1R, cynomolgus GLP1R; expressed in transfected cells; host or cells: HEK293/CRE-Luc. To be noted: HEK293/CRE-Luc/hGLP1R; for S/N: highest RLU / RLU of untreated wells; for EC50: payloads and linker-payloads, experiments A-E, M2361 repeated in each, read-out: EC50; for Relative Potency (% M2361 EC50) / Relative Signal:Noise (% M2361): relative to M2361 of the same experiment. An outline of the steps: as §1

Where a SMILES comes first, the peptide text is derived from it. [ ]: non-standard residue; d: D form. The star is where a group is joined. Bip(2'-Et,4'-O(CH2)4NH2) = CCc1cc(OCCCCN)ccc1-c1ccc(C[C@H](N)C(=O)O)cc1; Nva(5-(3,5-Me2Ph)) = Cc1cc(C)cc(CCC[C@H](N)C(=O)O)c1; Ala(1H-tetrazol-5-yl) = N[C@@H](Cc1nnn[nH]1)C(=O)O; αMePhe(2-F) = C[C@](N)(Cc1ccccc1F)C(=O)O; X6 = CC(C)(C(=O)NO)C(=O)*

We go through eight compounds from patent publication US20230330254A1 (Regeneron Pharmaceuticals, Inc., priority 2022, published 2023).

For orientation: EC50 means the concentration that produces a half-maximal response.

T1 sequence (P43220 24-463): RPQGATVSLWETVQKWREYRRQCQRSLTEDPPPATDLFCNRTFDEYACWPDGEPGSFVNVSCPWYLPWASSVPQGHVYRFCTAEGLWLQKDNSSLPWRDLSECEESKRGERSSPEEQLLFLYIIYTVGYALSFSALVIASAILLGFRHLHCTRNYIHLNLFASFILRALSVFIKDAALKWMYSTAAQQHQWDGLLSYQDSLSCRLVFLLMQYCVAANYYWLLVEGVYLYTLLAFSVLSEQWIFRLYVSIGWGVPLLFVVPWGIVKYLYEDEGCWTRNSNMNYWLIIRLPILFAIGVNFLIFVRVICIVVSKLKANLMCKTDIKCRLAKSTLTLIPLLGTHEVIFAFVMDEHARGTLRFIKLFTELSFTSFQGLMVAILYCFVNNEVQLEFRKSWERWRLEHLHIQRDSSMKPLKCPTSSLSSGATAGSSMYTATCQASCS

In the case of `CCc1cc(OCCCCNC(=O)CNC(=O)CNC(=O)CNC(=O)CNC(=O)[C@H](CO)NC(=O)CCC(=O)N2Cc3ccccc3C#Cc3ccccc32)ccc1-c1ccc(C[C@H](NC(=O)[C@H](CC(=O)O)NC(=O)[C@H](CO)NC(=O)[C@@H](NC(=O)[C@](C)(Cc2ccccc2F)NC(=O)[C@@H](NC(=O)CNC(=O)[C@H](Cc2nn[nH]n2)NC(=O)C(C)(C)C(=O)NCCc2cnc[nH]2)[C@@H](C)O)[C@@H](C)O)C(=O)N[C@@H](CCCc2cc(C)cc(C)c2)C(N)=O)cc1` [LP7, DIBAC-suc-SG4-P9], in the experiment with HEK293/CRE-Luc cells, the S/N is 1.1 and the EC50 is above 200 nM. The concentration for a half-maximal effect (EC50) at human GLP1R [1] was found to be 0.378 nM. At human GLP1R [2], the S/N is listed as 55.3, the half-maximal effective concentration (EC50) came out at 0.00972 nM, the “Relative Potency (% M2361 EC50)” value came to 54.6% and the “Relative Signal:Noise (% M2361)” value turned out to be 84.1%.
For `CCc1cc(OCCCCn2cc(COCCOCCOCCOCCNC(=O)OC[C@@H]3[C@@H]4CCC#CCC[C@@H]43)nn2)ccc1-c1ccc(C[C@H](NC(=O)[C@H](CC(=O)O)NC(=O)[C@H](CO)NC(=O)[C@@H](NC(=O)[C@](C)(Cc2ccccc2F)NC(=O)[C@@H](NC(=O)CNC(=O)[C@H](Cc2nn[nH]n2)NC(=O)C(C)(C)C(=O)NCCc2cnc[nH]2)[C@@H](C)O)[C@@H](C)O)C(=O)N[C@@H](CCCc2cc(C)cc(C)c2)C(N)=O)cc1` [LP9, BCN-PEG4-triazole-P8], in the experiment with HEK293/CRE-Luc cells, the S/N was 1.3 and the 50% effective concentration (EC50) is above 200 nM. Besides, on human GLP1R [1], the EC50 came to 0.078 nM. In addition, at human GLP1R [2], the S/N amounted to 73.8, the concentration for a half-maximal effect (EC50) was found to be 0.0174 nM, the “Relative Potency (% M2361 EC50)” value was determined as 30.5% and the “Relative Signal:Noise (% M2361)” value came out at 112.2%.
Take `CCc1cc(OCCCCNC(=O)[C@H](CO)NC(=O)CNC(=O)CNC(=O)CNC(=O)CNC(=O)CCC(=O)N2Cc3ccccc3C#Cc3ccccc32)ccc1-c1ccc(C[C@H](NC(=O)[C@H](CC(=O)O)NC(=O)[C@H](CO)NC(=O)[C@@H](NC(=O)[C@](C)(Cc2ccccc2F)NC(=O)[C@@H](NC(=O)CNC(=O)[C@H](Cc2nn[nH]n2)NC(=O)C(C)(C)C(=O)NCCc2cnc[nH]2)[C@@H](C)O)[C@@H](C)O)C(=O)N[C@@H](CCCc2cc(C)cc(C)c2)C(=O)Nc2ccccc2)cc1` [LP15, DIBAC- suc-G4S- P23]: in the experiment with HEK293/CRE-Luc cells, the S/N is on record as 1.5 and the EC50 is above 200 nM. Moreover, the EC50 on human GLP1R [1] stood at 0.649 nM. On human GLP1R [2], the S/N was 48.1, the EC50 stood at 0.0704 nM, the “Relative Potency (% M2361 EC50)” value was determined as 7.5% and the “Relative Signal:Noise (% M2361)” value amounted to 73.2%.
On to `CCc1cc(OCCCCNC(=O)CNC(=O)CNC(=O)CNC(=O)CNC(=O)[C@H](CO[C@@H]2O[C@H](CO)[C@@H](O)[C@H](O)[C@H]2O)NC(=O)CCNC(=O)OC[C@@H]2[C@@H]3CCC#CCC[C@@H]32)ccc1-c1ccc(C[C@H](NC(=O)[C@H](CC(=O)O)NC(=O)[C@H](CO)NC(=O)[C@@H](NC(=O)[C@](C)(Cc2ccccc2F)NC(=O)[C@@H](NC(=O)CNC(=O)[C@H](Cc2nn[nH]n2)NC(=O)C(C)(C)C(=O)NCCc2cnc[nH]2)[C@@H](C)O)[C@@H](C)O)C(=O)N[C@@H](CCCc2cc(C)cc(C)c2)C(N)=O)cc1` [LP18, BCN NHC2 H4CO (glucose) SG4-P9], for which, in the experiment on HEK293/CRE-Luc cells, the S/N is 1.1 and the EC50 is above 200 nM. In addition, at human GLP1R [1], the EC50 was found to be 0.458 nM. Besides, on human GLP1R [2], the S/N stood at 62.1, the 50% effective concentration (EC50) was determined as 0.0467 nM, the “Relative Potency (% M2361 EC50)” value worked out at 11.4% and the “Relative Signal:Noise (% M2361)” value is 94.4%.
As to `CCc1cc(OCCCCN)ccc1-c1ccc(C[C@H](NC(=O)[C@H](CC(=O)O)NC(=O)[C@H](CO)NC(=O)[C@@H](NC(=O)[C@](C)(Cc2ccccc2F)NC(=O)[C@@H](NC(=O)CNC(=O)[C@H](Cc2nn[nH]n2)NC(=O)C(C)(C)C(=O)NO)[C@@H](C)O)[C@@H](C)O)C(=O)N[C@@H](CCCc2cc(C)cc(C)c2)C(N)=O)cc1` [P5] (X6-[Ala(1H-tetrazol-5-yl)]GT[αMePhe(2-F)]TSD[Bip(2'-Et,4'-O(CH2)4NH2)][Nva(5-(3,5-Me2Ph))]-NH2), in the experiment with HEK293/CRE-Luc cells, the S/N turned out to be 1.3 and the 50% effective concentration (EC50) was above 200 nM. In addition, the EC50 on human GLP1R [1] was found to be 0.115 nM. In addition, on human GLP1R [2], the S/N amounted to 50.6, the EC50 stood at 0.127 nM, the “Relative Potency (% M2361 EC50)” value amounted to 4.2% and the “Relative Signal:Noise (% M2361)” value is on record as 76.9%.
Consider `CCc1cc(OCCCCN)ccc1-c1ccc(C[C@H](NC(=O)[C@H](CC(=O)O)NC(=O)[C@H](CO)NC(=O)[C@@H](NC(=O)[C@](C)(Cc2ccccc2F)NC(=O)[C@@H](NC(=O)CNC(=O)[C@H](Cc2nn[nH]n2)NC(=O)[C@@H](N)CO)[C@@H](C)O)[C@@H](C)O)C(=O)N[C@@H](CCCc2cc(C)cc(C)c2)C(N)=O)cc1` [P7] (H-S[Ala(1H-tetrazol-5-yl)]GT[αMePhe(2-F)]TSD[Bip(2'-Et,4'-O(CH2)4NH2)][Nva(5-(3,5-Me2Ph))]-NH2), for which, in the experiment on HEK293/CRE-Luc cells, the S/N is listed as 1.0 and the EC50 is above 200 nM. For the same compound, the 50% effective concentration (EC50) on human GLP1R [1] came out at 2.06 nM. At human GLP1R [2], the S/N was determined as 48.4, the EC50 is 1.89 nM, the “Relative Potency (% M2361 EC50)” value is given as 0.3% and the “Relative Signal:Noise (% M2361)” value worked out at 73.6%.
As to `CCc1cc(OCCCCN)ccc1-c1ccc(C[C@H](NC(=O)[C@H](CC(=O)O)NC(=O)[C@H](CO)NC(=O)[C@@H](NC(=O)[C@](C)(Cc2ccccc2F)NC(=O)[C@@H](NC(=O)CNC(=O)[C@H](Cc2nn[nH]n2)NC(=O)[C@H](C)NC(=O)[C@@H](N)Cc2ccc(O)cc2)[C@@H](C)O)[C@@H](C)O)C(=O)N[C@@H](CCCc2cc(C)cc(C)c2)C(N)=O)cc1` [P18], in the experiment with HEK293/CRE-Luc cells, the S/N worked out at 1.4 and the concentration for a half-maximal effect (EC50) was above 200 nM. In addition, at human GLP1R [1], the EC50 turned out to be 0.37 nM. Also, on human GLP1R [2], the S/N is reported as 68.2, the EC50 came out at 0.0613 nM, the “Relative Potency (% M2361 EC50)” value was 8.7% and the “Relative Signal:Noise (% M2361)” value worked out at 103.6%.
On to `CCc1cc(OCCCCN)ccc1-c1ccc(C[C@H](NC(=O)[C@H](CC(=O)O)NC(=O)[C@H](CO)NC(=O)[C@@H](NC(=O)[C@](C)(Cc2ccccc2F)NC(=O)[C@@H](NC(=O)CNC(=O)[C@H](Cc2nn[nH]n2)NC(=O)C(C)(C)C(=O)NCCc2cnc[nH]2)[C@@H](C)O)[C@@H](C)O)C(=O)Nc2ccccc2)cc1` [P22], for which, in the experiment with HEK293/CRE-Luc cells, the S/N stood at 1.5 and the EC50 was above 200 nM. For the same compound, the EC50 on human GLP1R [1] stood at 0.603 nM. At human GLP1R [2], the S/N turned out to be 48.9, the concentration giving a half-maximal response (EC50) came to 0.44 nM, the “Relative Potency (% M2361 EC50)” value is given as 1.2% and the “Relative Signal:Noise (% M2361)” value was 74.4%.
